Source: ChEMBL document CHEMBL4649984, “CBP30, a selective CBP/p300 bromodomain inhibitor, suppresses human Th17 responses” (Proc Natl Acad Sci U S A, 2015)
Values joined by “and” are separate entries in the source; they are usually repeats but may differ in a detail not shown here. Identical values can stand only once.

Columns and labels:
[1] = biological target: T1, Bromodomain-containing protein 4 (Homo sapiens, UniProt O60885); assay: Alphascreen assay. Binding to BRD4A (domain start/stop: N44-E168) by alphascreen assay
[2] = biological target: Bromodomain adjacent to zinc finger domain protein 2B (Homo sapiens) (UniProt Q9UIF8); assay: Alphascreen assay. Domain start/stop: S1858-S1972; conditions: Compound concentration 25.0 uM, Protein concentration 25.0 uM
[3] = biological target: Bromodomain-containing protein 3 (Homo sapiens) (UniProt Q15059); assay: Thermal Shift Assay. Domain start/stop: P24-E144; conditions: Compound concentration 10.0 uM, Protein concentration 2.0 uM
[4] = biological target: Histone acetyltransferase p300 (Homo sapiens) (UniProt Q09472); assay: Thermal Shift Assay. Domain start/stop: A1040-S1171; conditions: Compound concentration 10.0 uM, Protein concentration 2.0 uM
[5] = biological target: Protein polybromo-1 (Homo sapiens) (UniProt Q86U86); assay: Thermal Shift Assay. Domain start/stop: H23-D159; conditions: Compound concentration 10.0 uM, Protein concentration 2.0 uM
[6] = biological target: Protein polybromo-1 (Homo sapiens) (UniProt Q86U86); assay: Thermal Shift Assay. Domain start/stop: R487-D598; conditions: Compound concentration 10.0 uM, Protein concentration 2.0 uM
[7] = biological target: Tripartite motif-containing protein 66 (Homo sapiens) (UniProt O15016); assay: Thermal Shift Assay. Domain start/stop: M1091-S1218; conditions: Compound concentration 10.0 uM, Protein concentration 2.0 uM
[8] = biological target: ATPase family AAA domain-containing protein 2 (Homo sapiens) (UniProt Q6PL18); conditions: Compound concentration 25.0 uM, Protein concentration 200.0 uM
Description: Alphascreen assay. Domain start/stop: Q981-R1108

[9] = biological target: Chromatin remodeling regulator CECR2 (Homo sapiens) (UniProt Q9BXF3); conditions: Compound concentration 20.0 uM, Protein concentration 12.5 uM
[10] = biological target: PH-interacting protein (Homo sapiens) (UniProt Q8WWQ0); conditions: Compound concentration 50.0 uM, Protein concentration 0.025 uM
[11] = biological target: Histone-lysine N-methyltransferase ASH1L (Homo sapiens) (UniProt Q9NR48); conditions: Compound concentration 10.0 uM, Protein concentration 2.0 uM
[12] = biological target: ATPase family AAA domain-containing protein 2 (Homo sapiens) (UniProt Q6PL18); conditions: Compound concentration 10.0 uM, Protein concentration 2.0 uM
[13] = biological target: ATPase family AAA domain-containing protein 2B (Homo sapiens) (UniProt Q9ULI0); conditions: Compound concentration 10.0 uM, Protein concentration 2.0 uM
[14] = biological target: Bromodomain adjacent to zinc finger domain protein 1A (Homo sapiens) (UniProt Q9NRL2); conditions: Compound concentration 10.0 uM, Protein concentration 2.0 uM
[15] = biological target: Bromodomain adjacent to zinc finger domain protein 2A (Homo sapiens) (UniProt Q9UIF9); conditions: Compound concentration 10.0 uM, Protein concentration 2.0 uM
[16] = biological target: Bromodomain adjacent to zinc finger domain protein 2B (Homo sapiens) (UniProt Q9UIF8); conditions: Compound concentration 10.0 uM, Protein concentration 2.0 uM
[17] = biological target: Nucleosome-remodeling factor subunit BPTF (Homo sapiens) (UniProt Q12830); conditions: Compound concentration 10.0 uM, Protein concentration 2.0 uM
[18] = biological target: Bromodomain-containing protein 1 (Homo sapiens) (UniProt O95696); conditions: Compound concentration 10.0 uM, Protein concentration 2.0 uM
[19] = biological target: Bromodomain-containing protein 2 (Homo sapiens) (UniProt P25440); conditions: Compound concentration 10.0 uM, Protein concentration 2.0 uM
[20] = biological target: Bromodomain-containing protein 2 (Homo sapiens) (UniProt P25440); conditions: Compound concentration 10.0 uM, Protein concentration 2.0 uM; remark: listed apart in the source
[21] = biological target: Bromodomain-containing protein 3 (Homo sapiens) (UniProt Q15059); conditions: Compound concentration 10.0 uM, Protein concentration 2.0 uM
[22] = biological target: T1, Bromodomain-containing protein 4; conditions: Compound concentration 10.0 uM, Protein concentration 2.0 uM
[23] = biological target: Bromodomain-containing protein 9 (Homo sapiens) (UniProt Q9H8M2); conditions: Compound concentration 10.0 uM, Protein concentration 2.0 uM
[24] = biological target: Bromodomain testis-specific protein (Homo sapiens) (UniProt Q58F21); conditions: Compound concentration 10.0 uM, Protein concentration 2.0 uM
[25] = biological target: Bromodomain testis-specific protein (Homo sapiens) (UniProt Q58F21); conditions: Compound concentration 10.0 uM, Protein concentration 2.0 uM; remark: listed apart in the source
Peregrin (Homo sapiens) [26] = biological target: Peregrin (Homo sapiens) (UniProt P55201); conditions: Compound concentration 10.0 uM, Protein concentration 2.0 uM
[27] = biological target: Bromodomain and PHD finger-containing protein 3 (Homo sapiens) (UniProt Q9ULD4); conditions: Compound concentration 10.0 uM, Protein concentration 2.0 uM
[28] = biological target: Bromodomain and WD repeat-containing protein 1 (Homo sapiens) (UniProt Q9NSI6); conditions: Compound concentration 10.0 uM, Protein concentration 2.0 uM
[29] = biological target: Bromodomain and WD repeat-containing protein 3 (Homo sapiens) (UniProt Q6RI45); conditions: Compound concentration 10.0 uM, Protein concentration 2.0 uM
[30] = biological target: Chromatin remodeling regulator CECR2 (Homo sapiens) (UniProt Q9BXF3); conditions: Compound concentration 10.0 uM, Protein concentration 2.0 uM
[31] = biological target: CREB-binding protein (Homo sapiens) (UniProt Q92793); conditions: Compound concentration 10.0 uM, Protein concentration 2.0 uM
[32] = biological target: Histone acetyltransferase p300 (Homo sapiens) (UniProt Q09472); conditions: Compound concentration 10.0 uM, Protein concentration 2.0 uM
[33] = biological target: Histone acetyltransferase KAT2A (Homo sapiens) (UniProt Q92830); conditions: Compound concentration 10.0 uM, Protein concentration 2.0 uM
[34] = biological target: Histone acetyltransferase KAT2B (Homo sapiens) (UniProt Q92831); conditions: Compound concentration 10.0 uM, Protein concentration 2.0 uM
[35] = biological target: Protein polybromo-1 (Homo sapiens) (UniProt Q86U86); conditions: Compound concentration 10.0 uM, Protein concentration 2.0 uM
[36] = biological target: Protein polybromo-1 (Homo sapiens) (UniProt Q86U86); conditions: Compound concentration 10.0 uM, Protein concentration 2.0 uM; remark: listed apart in the source
[37] = biological target: Protein polybromo-1 (Homo sapiens) (UniProt Q86U86); conditions: Compound concentration 10.0 uM, Protein concentration 2.0 uM; remark: listed apart in the source
[38] = biological target: Protein polybromo-1 (Homo sapiens) (UniProt Q86U86); conditions: Compound concentration 10.0 uM, Protein concentration 2.0 uM; remark: listed apart in the source
[39] = biological target: PH-interacting protein (Homo sapiens) (UniProt Q8WWQ0); conditions: Compound concentration 10.0 uM, Protein concentration 2.0 uM
[40] = biological target: SWI/SNF-related matrix-associated actin-dependent regulator of chromatin subfamily A member 2 (Homo sapiens) (UniProt P51531); conditions: Compound concentration 10.0 uM, Protein concentration 2.0 uM
[41] = biological target: SWI/SNF-related matrix-associated actin-dependent regulator of chromatin subfamily A member 4 (Homo sapiens) (UniProt P51532); conditions: Compound concentration 10.0 uM, Protein concentration 2.0 uM
[42] = biological target: Nuclear body protein SP140 (Homo sapiens) (UniProt Q13342); conditions: Compound concentration 10.0 uM, Protein concentration 2.0 uM
[43] = biological target: Nuclear body protein SP140-like protein (Homo sapiens) (UniProt Q9H930); conditions: Compound concentration 10.0 uM, Protein concentration 2.0 uM
[44] = biological target: Transcription initiation factor TFIID subunit 1 (Homo sapiens) (UniProt P21675); conditions: Compound concentration 10.0 uM, Protein concentration 2.0 uM
[45] = biological target: Transcription initiation factor TFIID subunit 1 (Homo sapiens) (UniProt P21675); conditions: Compound concentration 10.0 uM, Protein concentration 2.0 uM; remark: listed apart in the source
[46] = biological target: Transcription initiation factor TFIID subunit 1-like (Homo sapiens) (UniProt Q8IZX4); conditions: Compound concentration 10.0 uM, Protein concentration 2.0 uM
[47] = biological target: Transcription initiation factor TFIID subunit 1-like (Homo sapiens) (UniProt Q8IZX4); conditions: Compound concentration 10.0 uM, Protein concentration 2.0 uM; remark: listed apart in the source
[48] = biological target: Transcription intermediary factor 1-alpha (Homo sapiens) (UniProt O15164); conditions: Compound concentration 10.0 uM, Protein concentration 2.0 uM
[49] = biological target: Transcription intermediary factor 1-beta (Homo sapiens) (UniProt Q13263); conditions: Compound concentration 10.0 uM, Protein concentration 2.0 uM
Peregrin (Homo sapiens) [50] = biological target: Peregrin (Homo sapiens) (UniProt P55201); conditions: Compound concentration 10.0 uM, Protein concentration 2.0 uM; remark: listed apart in the source

Chromatin remodeling regulator CECR2 (Homo sapiens), sequence (Q9BXF3 whole entry, looked up): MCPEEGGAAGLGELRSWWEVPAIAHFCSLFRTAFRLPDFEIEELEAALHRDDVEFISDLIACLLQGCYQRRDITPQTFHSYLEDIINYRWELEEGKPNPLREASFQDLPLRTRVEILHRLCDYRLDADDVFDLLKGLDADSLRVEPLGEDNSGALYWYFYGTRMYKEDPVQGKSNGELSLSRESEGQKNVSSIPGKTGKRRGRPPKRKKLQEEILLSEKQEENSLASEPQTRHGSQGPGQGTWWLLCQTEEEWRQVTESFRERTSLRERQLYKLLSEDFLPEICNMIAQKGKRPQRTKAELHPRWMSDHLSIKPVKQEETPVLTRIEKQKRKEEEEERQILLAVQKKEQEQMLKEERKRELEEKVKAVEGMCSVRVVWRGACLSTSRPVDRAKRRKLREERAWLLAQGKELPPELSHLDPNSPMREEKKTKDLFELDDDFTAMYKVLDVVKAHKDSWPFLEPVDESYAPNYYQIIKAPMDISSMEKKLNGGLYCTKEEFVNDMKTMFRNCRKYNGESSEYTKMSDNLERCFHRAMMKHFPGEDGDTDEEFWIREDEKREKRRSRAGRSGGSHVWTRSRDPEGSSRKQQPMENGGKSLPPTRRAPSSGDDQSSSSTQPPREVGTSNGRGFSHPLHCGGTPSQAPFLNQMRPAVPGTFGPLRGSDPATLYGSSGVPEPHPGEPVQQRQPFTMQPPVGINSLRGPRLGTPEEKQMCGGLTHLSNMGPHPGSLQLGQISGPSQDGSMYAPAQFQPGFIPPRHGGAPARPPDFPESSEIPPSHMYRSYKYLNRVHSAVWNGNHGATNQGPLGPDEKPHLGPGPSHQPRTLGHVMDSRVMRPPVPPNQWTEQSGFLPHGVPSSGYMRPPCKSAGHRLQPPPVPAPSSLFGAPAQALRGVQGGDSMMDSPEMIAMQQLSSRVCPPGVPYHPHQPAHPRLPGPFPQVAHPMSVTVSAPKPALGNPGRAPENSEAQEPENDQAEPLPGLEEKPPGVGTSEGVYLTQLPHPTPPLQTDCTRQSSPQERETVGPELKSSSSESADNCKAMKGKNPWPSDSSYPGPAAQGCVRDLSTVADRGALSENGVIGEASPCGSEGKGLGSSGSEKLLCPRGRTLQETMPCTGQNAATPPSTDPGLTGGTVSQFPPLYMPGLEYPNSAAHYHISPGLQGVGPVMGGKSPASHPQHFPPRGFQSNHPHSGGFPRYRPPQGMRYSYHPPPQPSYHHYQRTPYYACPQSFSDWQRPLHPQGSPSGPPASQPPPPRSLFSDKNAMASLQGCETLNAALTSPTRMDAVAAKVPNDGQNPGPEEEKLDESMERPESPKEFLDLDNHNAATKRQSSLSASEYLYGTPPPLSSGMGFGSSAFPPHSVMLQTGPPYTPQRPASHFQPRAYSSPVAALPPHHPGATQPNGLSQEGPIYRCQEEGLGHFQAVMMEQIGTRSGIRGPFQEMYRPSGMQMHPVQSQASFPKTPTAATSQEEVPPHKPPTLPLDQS
Protein polybromo-1 (Homo sapiens), sequence (Q86U86 whole entry): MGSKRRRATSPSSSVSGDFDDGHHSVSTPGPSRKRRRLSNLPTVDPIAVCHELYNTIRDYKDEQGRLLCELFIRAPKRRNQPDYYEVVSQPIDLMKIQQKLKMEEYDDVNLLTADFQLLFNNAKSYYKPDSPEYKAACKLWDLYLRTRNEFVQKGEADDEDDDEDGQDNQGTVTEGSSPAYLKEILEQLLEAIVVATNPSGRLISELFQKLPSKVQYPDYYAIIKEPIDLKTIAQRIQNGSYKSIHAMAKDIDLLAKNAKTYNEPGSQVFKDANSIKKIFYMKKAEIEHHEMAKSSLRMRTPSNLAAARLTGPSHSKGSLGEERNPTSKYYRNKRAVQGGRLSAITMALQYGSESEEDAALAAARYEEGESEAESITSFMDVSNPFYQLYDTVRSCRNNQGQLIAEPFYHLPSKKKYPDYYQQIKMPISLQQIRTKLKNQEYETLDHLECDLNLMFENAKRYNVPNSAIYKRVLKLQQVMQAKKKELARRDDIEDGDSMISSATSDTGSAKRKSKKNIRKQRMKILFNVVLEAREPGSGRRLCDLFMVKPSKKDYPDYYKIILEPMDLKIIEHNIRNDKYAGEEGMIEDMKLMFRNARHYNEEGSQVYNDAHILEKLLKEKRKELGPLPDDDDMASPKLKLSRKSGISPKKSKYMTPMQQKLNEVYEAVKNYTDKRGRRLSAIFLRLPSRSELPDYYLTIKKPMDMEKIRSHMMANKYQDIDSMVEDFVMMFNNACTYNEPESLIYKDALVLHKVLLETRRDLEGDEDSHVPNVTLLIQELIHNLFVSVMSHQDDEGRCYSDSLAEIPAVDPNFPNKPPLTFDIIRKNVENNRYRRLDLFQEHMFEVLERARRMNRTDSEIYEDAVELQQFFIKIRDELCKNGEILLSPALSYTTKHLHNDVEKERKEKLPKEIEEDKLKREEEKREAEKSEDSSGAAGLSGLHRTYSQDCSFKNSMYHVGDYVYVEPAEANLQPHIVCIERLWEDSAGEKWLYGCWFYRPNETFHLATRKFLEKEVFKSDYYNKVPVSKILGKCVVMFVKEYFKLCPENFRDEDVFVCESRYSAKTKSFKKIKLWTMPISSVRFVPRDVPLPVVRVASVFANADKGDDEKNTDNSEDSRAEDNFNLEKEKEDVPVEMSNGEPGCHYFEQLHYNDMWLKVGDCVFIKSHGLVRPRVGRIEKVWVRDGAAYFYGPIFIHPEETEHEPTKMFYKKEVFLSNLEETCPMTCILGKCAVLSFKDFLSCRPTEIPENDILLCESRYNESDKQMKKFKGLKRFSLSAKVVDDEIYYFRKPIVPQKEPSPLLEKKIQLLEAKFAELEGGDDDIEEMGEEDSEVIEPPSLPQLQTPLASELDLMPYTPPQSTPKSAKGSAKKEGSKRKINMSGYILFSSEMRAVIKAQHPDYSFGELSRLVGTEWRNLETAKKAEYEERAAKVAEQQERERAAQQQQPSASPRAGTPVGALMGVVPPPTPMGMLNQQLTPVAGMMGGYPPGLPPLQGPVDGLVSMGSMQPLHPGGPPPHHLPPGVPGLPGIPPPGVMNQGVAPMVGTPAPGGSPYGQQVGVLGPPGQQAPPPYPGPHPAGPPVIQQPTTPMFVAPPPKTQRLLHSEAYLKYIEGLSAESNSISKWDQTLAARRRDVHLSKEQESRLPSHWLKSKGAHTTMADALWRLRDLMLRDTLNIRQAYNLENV
Transcription initiation factor TFIID subunit 1 (Homo sapiens), sequence (P21675 whole entry): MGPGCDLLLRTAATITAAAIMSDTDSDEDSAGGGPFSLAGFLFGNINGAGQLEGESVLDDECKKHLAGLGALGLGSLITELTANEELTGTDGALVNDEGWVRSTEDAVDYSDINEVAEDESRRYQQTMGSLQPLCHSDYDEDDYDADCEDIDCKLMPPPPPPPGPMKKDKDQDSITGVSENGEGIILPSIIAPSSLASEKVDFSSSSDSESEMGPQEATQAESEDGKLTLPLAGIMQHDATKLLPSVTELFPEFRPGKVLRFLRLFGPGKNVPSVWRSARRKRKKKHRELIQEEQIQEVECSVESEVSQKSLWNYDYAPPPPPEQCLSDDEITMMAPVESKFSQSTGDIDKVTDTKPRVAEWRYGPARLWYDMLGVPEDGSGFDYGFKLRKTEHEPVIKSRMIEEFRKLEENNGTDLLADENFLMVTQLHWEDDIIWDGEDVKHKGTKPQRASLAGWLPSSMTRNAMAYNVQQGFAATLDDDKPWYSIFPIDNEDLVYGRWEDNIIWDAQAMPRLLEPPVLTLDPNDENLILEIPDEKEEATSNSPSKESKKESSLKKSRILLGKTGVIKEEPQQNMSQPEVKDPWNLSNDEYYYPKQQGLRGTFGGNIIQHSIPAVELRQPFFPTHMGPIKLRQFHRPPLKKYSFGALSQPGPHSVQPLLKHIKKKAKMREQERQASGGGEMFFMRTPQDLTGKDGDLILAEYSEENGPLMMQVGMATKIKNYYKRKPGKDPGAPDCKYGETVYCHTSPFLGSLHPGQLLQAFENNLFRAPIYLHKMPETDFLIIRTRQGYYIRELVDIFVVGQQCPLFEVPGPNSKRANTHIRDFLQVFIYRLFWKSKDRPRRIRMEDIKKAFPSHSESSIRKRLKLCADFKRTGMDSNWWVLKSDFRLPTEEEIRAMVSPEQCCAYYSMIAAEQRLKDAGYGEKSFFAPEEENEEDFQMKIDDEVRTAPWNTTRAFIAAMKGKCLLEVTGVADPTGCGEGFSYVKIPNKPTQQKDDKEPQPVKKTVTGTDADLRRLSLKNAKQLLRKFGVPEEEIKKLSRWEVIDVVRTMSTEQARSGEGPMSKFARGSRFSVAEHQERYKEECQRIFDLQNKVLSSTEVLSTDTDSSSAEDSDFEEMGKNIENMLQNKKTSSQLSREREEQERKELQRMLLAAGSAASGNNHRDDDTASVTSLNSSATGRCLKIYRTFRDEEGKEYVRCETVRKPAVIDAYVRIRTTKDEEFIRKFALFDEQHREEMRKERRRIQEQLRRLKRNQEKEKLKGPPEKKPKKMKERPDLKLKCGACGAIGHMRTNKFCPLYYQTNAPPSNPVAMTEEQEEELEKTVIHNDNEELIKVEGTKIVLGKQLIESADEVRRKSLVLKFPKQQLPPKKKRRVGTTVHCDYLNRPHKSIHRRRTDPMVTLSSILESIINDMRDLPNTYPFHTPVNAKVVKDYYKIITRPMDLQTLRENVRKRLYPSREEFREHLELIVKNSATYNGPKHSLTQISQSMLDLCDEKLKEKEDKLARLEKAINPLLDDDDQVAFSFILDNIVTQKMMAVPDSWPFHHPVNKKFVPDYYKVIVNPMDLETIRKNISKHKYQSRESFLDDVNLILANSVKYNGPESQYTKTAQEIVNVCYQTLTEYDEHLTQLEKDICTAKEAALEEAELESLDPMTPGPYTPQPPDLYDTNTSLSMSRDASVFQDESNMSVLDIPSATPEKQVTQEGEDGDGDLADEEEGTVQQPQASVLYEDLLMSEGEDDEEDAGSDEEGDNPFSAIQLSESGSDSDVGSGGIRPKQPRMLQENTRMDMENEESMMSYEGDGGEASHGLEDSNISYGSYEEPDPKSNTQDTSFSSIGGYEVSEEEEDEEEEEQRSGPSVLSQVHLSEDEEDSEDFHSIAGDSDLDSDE

How did the IC50 [1] turn out when `COc1ccc(CCc2nc3cc(-c4c(C)noc4C)ccc3n2C[C@H](C)N2CCOCC2)cc1Cl` was run?
Its IC50 is 27.8 µM and 7.12 µM.

What about the inhibition [2] of the same compound?
The inhibition was 24%.

What about the ΔTm [3] of the same compound?
The ΔTm was 1.83 °C.

What about the ΔTm [4] of the same compound?
The ΔTm was 9.68 °C.

What about the ΔTm [5] of the same compound?
Its ΔTm is 0.03 °C.

What about the ΔTm [6] of the same compound?
The ΔTm was 0.23 °C.

What about the ΔTm [7] of the same compound?
Its ΔTm is 0.82 °C.

And the inhibition [8]?
The inhibition was 24.4%.

What about the inhibition [9] of the same compound?
The inhibition was 58.8%.

And the inhibition [10]?
Its inhibition is 35.5% and 42.4%.

And the ΔTm [11]?
The ΔTm was -0.29 °C.

What about the ΔTm [12] of the same compound?
The ΔTm was -2.5 °C.

And the ΔTm [13]?
Its ΔTm is 0.45 °C.

What about the ΔTm [14] of the same compound?
Its ΔTm is -0.45 °C.

What about the ΔTm [15] of the same compound?
Its ΔTm is -0.18 °C.

And the ΔTm [16]?
Its ΔTm is 0.17 °C.

And the ΔTm [17]?
Its ΔTm is 0.21 °C and -1.05 °C.

And the ΔTm [18]?
Its ΔTm is 0.43 °C and 0.36 °C.

And the ΔTm [19]?
The ΔTm was 0.99 °C.

And the ΔTm [20]?
The ΔTm was 1.41 °C.

And the ΔTm [21]?
Its ΔTm is 1.25 °C.

And the ΔTm [22]?
The ΔTm was 0.56 °C.

What about the ΔTm [23] of the same compound?
Its ΔTm is -0.12 °C and -0.5 °C.

And the ΔTm [24]?
The ΔTm was 0.66 °C.

What about the ΔTm [25] of the same compound?
The ΔTm was 0.37 °C.

And the ΔTm (Peregrin (Homo sapiens) [26])?
Its ΔTm is 1.46 °C.

What about the ΔTm [27] of the same compound?
The ΔTm was 0.46 °C.

And the ΔTm [28]?
The ΔTm was 0.96 °C.

And the ΔTm [29]?
The ΔTm was 0.97 °C.

What about the ΔTm [30] of the same compound?
The ΔTm was 0.18 °C and 1.55 °C.

And the ΔTm [31]?
Its ΔTm is 10.2 °C and 9.55 °C.

And the ΔTm [32]?
Its ΔTm is 10.2 °C.

What about the ΔTm [33] of the same compound?
The ΔTm was 0.17 °C.

What about the ΔTm [34] of the same compound?
Its ΔTm is 0.46 °C.

And the ΔTm [35]?
The ΔTm was 0.46 °C.

And the ΔTm [36]?
Its ΔTm is 0.23 °C.

And the ΔTm [37]?
The ΔTm was 0.12 °C.

What about the ΔTm [38] of the same compound?
The ΔTm was 0.46 °C and -0.03 °C.

What about the ΔTm [39] of the same compound?
The ΔTm was 0.57 °C.

And the ΔTm [40]?
The ΔTm was 0.06 °C.

And the ΔTm [41]?
The ΔTm was 0.34 °C.

What about the ΔTm [42] of the same compound?
The ΔTm was 0.37 °C.

And the ΔTm [43]?
The ΔTm was 0.17 °C.

And the ΔTm [44]?
The ΔTm was -0.12 °C.

And the ΔTm [45]?
The ΔTm was 0.26 °C and 0.07 °C.

And the ΔTm [46]?
The ΔTm was -0.06 °C.

What about the ΔTm [47] of the same compound?
Its ΔTm is 1.11 °C.

What about the ΔTm [48] of the same compound?
Its ΔTm is 0.67 °C.

What about the ΔTm [49] of the same compound?
The ΔTm was 0.49 °C and -0.34 °C.

And the ΔTm (Peregrin (Homo sapiens) [50])?
Its ΔTm is 0.42 °C.
